Test results as given in patent US10646484B2, “Methods to treat opioid use disorder” (Indivior UK Limited, priority 2017, dated 2020).

Test system: opioid-dependent subjects
Experiment: Concentration-QT analysis pooled across clinical studies
Conditions: concentration-QT model covariate
Protocol: A concentration QT analysis was performed for the clinical studies conducted with Formulation D. Matching buprenorphine and norbuprenorphine plasma concentrations and 12-lead electrocardiograms (ECGs) were pooled across clinical studies conducted with Formulation D in opioid-dependent subjects. Concentration-QT models were developed to describe the effects of buprenorphine and norbuprenorphine on corrected QT (QTc) interval, after accounting for the effect of relevant concomitant medications and illicit drug use on heart rate and/or QT in opioid-dependent subjects. Data from the following studies were included in the analysis:
Stable doses of SUBUTEX® tablets ranged between 8 and 24 mg depending on the dose cohort.
Twenty subjects received SUBOXONE® film alone.
Subjects were inducted using SUBOXONE® film for 3 days, followed by 4- to 11-day SUBOXONE® film dose adjustment at doses ranging from 8 to 24 mg QD. SUBOXONE® film was tapered in subjects after amendment of study protocol (Day 1: 6 mg, Days 2 and 3: 4 mg, Days 4 and 5: 2 mg).
The following covariates were evaluated on alpha given their potential to affect heart rate: withdrawal symptoms (as measured by Clinical Opiate Withdrawal Scale (COWS)), clonidine and methocarbamol (used to treat withdrawal symptoms), cocaine, phencyclidine, cannabinoids, barbiturates, and methamphetamines (illicit drugs), amphetamines (taken for therapeutic, e.g., attention-deficit/hyperactivity disorder or illicit use), as well as albuterol (known to increase heart rate).
The following covariates were evaluated on QTcAbs: sex, age, opioids known to have an effect on QTc (methadone, oxycodone), opioids that may have an effect on QTc (hydrocodone, morphine, hydromorphone, oxymorphone, heroin, codeine), or opioids (as a general class, with exact type not recorded in CRF), benzodiazepines, barbiturates, triplicate vs single ECG readings, central vs non-centrally read ECGs, and Holter vs non-Holter. Covariates were selected using individual steps of backward elimination. The concentration-related slope was added and the model was refined. Bootstrap and visual predictive checks were conducted to evaluate model performance.
In addition, the bias-corrected two-sided 90% confidence interval of the Delta QTc distribution was determined using the boot package in R (boot( ) function), where an additional nonparametric bootstrap was performed. If the upper limit of the 90% confidence interval was <10 msec, then an effect of Formulation D on QTc was to be ruled out.

SMILES | change in QTc associated with concomitant or illicit drug (covariate on QTc)
COC(=O)[C@H]1[C@@H](OC(=O)c2ccccc2)C[C@@H]2CC[C@H]1N2C [cocaine] | +1.7 msec
COc1ccc2c3c1O[C@H]1[C@@H](O)C=C[C@H]4[C@@H](C2)N(C)CC[C@@]341 [codeine] | +1.3 msec
CCC(=O)C(CC(C)N(C)C)(c1ccccc1)c1ccccc1 (stereo not drawn) [methadone] | +6.1 msec
COc1ccc2c3c1O[C@H]1C(=O)CC[C@@]4(O)[C@@H](C2)N(C)CC[C@]314 [oxycodone] | -1.5 ms
c1ccc(C2(N3CCCCC3)CCCCC2)cc1 [phencyclidine] | +3.4 msec

Same assay, conditions: human, in vivo

SMILES | change in QTc associated with concomitant or illicit drug (covariate on QTc)
OCCOCCN1CCN(C(c2ccccc2)c2ccc(Cl)cc2)CC1 (stereo not drawn) [hydroxyzine] | +1.7 msec
